In patent publication US7977327B2, “Substituted pyrrolidine derivative” (Daiichi Sankyo Company, Limited, priority 2004, dated 2011):
Values after ≈ are worked out from the molar mass of the structure shown.

Legend:
E. faevcalis ATCC 19433 = assay: Antibacterial activity (MIC), standard method of the Japan Society of Chemotherapy; assay type: cell-based; conditions: E. faevcalis ATCC 19433
Description: (§1) The antimicrobial activities of the compounds of the present invention were determined according to a standard method designated by the Japan Society of Chemotherapy. The results are expressed by MIC (μg/mL) (Table 1). In Table 1, S. aureus 870307 and S. pneumonia J24 are quinolone-resistant bacteria.

S. flexneri 2A 5503 = assay: as above; assay type: cell-based
Description: as §1

E. coli NIHJ = assay: as above; assay type: cell-based; conditions: E. coli NIHJ
Description: as §1

S. maltophilia IID 1275 = assay: as above; assay type: cell-based; conditions: S. maltophilia IID 1275
Description: as §1

S. pneumoniae J24 = assay: as above; assay type: cell-based; conditions: S. pneumoniae J24, quinolone-resistant
Description: as §1

S. pyogenes G-36 = assay: as above; assay type: cell-based; conditions: S. pyogenes G-36
Description: as §1

K. pneumoniae TYPE I = assay: as above; assay type: cell-based; conditions: K. pneumoniae TYPE I
Description: as §1

S. aureus 870307 = assay: as above; assay type: cell-based; conditions: S. aureus 870307, quinolone-resistant
Description: as §1

P. Vulgalis 08601 = assay: as above; assay type: cell-based; conditions: P. Vulgalis 08601
Description: as §1

P. aeruginosa 32121 = assay: as above; assay type: cell-based; conditions: P. aeruginosa 32121
Description: as §1

P. aeruginosa 32104 = assay: as above; assay type: cell-based; conditions: P. aeruginosa 32104
Description: as §1

S. epidermidis 56500 = assay: as above; assay type: cell-based; conditions: S. epidermidis 56500
Description: as §1

S. marcescens 10100 = assay: as above; assay type: cell-based; conditions: S. marcescens 10100
Description: as §1

S. aureus FDA 209P = assay: as above; assay type: cell-based; conditions: S. aureus FDA 209P
Description: as §1

Work on C[C@H]1COc2c(N3C[C@@H](N)[C@@H](C4CC4)C3)c(F)cc3c(=O)c(C(=O)O)cn1c23 [Compound No. 9, (3S)-10-[(3S,4S)-3-Amino-4-cyclopropylpyrrolidin-1-yl]-9-fluoro-2,3-dihydro-3-methyl-7-oxo-7H-pyrido[1,2,3-de][1,4]benzoxazine-6-carboxylic acid] yielded a melting point of 218 to 220 °C.

For CC[C@H]1CN(c2c(F)cc3c(=O)c(C(=O)O)cn([C@@H]4C[C@@H]4F)c3c2OC)C[C@H]1NC [Compound No. 12, 7-[(3S,4S)-3-Ethyl-4-methylaminopyrrolidin-1-yl]-6-fluoro-1-[(1R,2S)-2-fluorocyclopropyl]-8-methoxy-1,4-dihydro-4-oxoquinoline-3-carboxylic acid], the melting point was 143 to 145 °C.

In the case of CC[C@H]1CN(c2c(F)cc3c(=O)c(C(=O)O)cn4c3c2OC[C@@H]4C)C[C@H]1NC [Compound No. 13, (3S)-10-[(3S,4S)-3-Ethyl-4-methylaminopyrrolidin-1-yl]-9-fluoro-2,3-dihydro-3-methyl-7-oxo-7H-pyrido[1,2,3-de][1,4]benzoxazine-6-carboxylic acid], the melting point is reported as 211 to 213 °C.

For CC[C@H]1CN(c2ccc3c(=O)c(C(=O)O)cn([C@@H]4C[C@@H]4F)c3c2C)C[C@H]1N [Compound No. 14, 7-[(3S,4S)-3-Amino-4-ethylpyrrolidine-1-yl]-1-[(1R,2S)-2-fluorocyclopropyl]-8-methyl-1,4-dihydro-4-oxoquinoline-3-carboxylic acid], the melting point was 232 to 234 °C.

Molecule CC[C@H]1CN(c2c(F)cc3c(=O)c(C(=O)O)cn([C@@H]4C[C@@H]4F)c3c2C)C[C@H]1NC [Compound No. 15, 7-[(3S,4S)-3-Ethyl-4-methylaminopyrrolidin-1-yl]-6-fluoro-1-[(1R,2S)-2-fluorocyclopropyl]-8-methyl-1,4-dihydro-4-oxoquinoline-3-carboxylic acid] has a melting point of 223 to 225 °C.

CN[C@@H]1CN(c2c(F)cc3c(=O)c(C(=O)O)cn([C@@H]4C[C@@H]4F)c3c2C)C[C@@H]1C(C)C [Compound No. 17, 6-Fluoro-1-[(1R,2S)-2-fluorocyclopropyl]-7-[(3S,4S)-3-isopropyl-4-methylaminopyrrolidin-1-yl]-8-methyl-1,4-dihydro-4-oxoquinoline-3-carboxylic acid] gave a melting point of 168 to 171 °C.

With C[C@H]1COc2c(N3CCN(C)CC3)c(F)cc3c(=O)c(C(=O)O)cn1c23 [LVFX, reference compound] the MIC (E. faevcalis ATCC 19433) was 0.78 µg/mL (≈ 2.16 µM), the MIC (S. flexneri 2A 5503) was 0.025 µg/mL (≈ 0.0692 µM) and the MIC (E. coli NIHJ) was 0.012 µg/mL (≈ 0.0332 µM). It also gave an MIC (S. maltophilia IID 1275) of 0.39 µg/mL (≈ 1.08 µM), an MIC (S. pneumoniae J24) of 0.78 µg/mL (≈ 2.16 µM) and an MIC (S. pyogenes G-36) of 0.78 µg/mL (≈ 2.16 µM). It also gave an MIC (K. pneumoniae TYPE I) of 0.1 µg/mL (≈ 0.277 µM), an MIC (S. aureus 870307) greater than 6.25 µg/mL and an MIC (P. Vulgalis 08601) of 0.012 µg/mL (≈ 0.0332 µM). For the same molecule, the MIC (P. aeruginosa 32121) was 0.1 µg/mL (≈ 0.277 µM), the MIC (P. aeruginosa 32104) was 0.2 µg/mL (≈ 0.553 µM) and the MIC (S. epidermidis 56500) was 0.39 µg/mL (≈ 1.08 µM). For the same molecule, the MIC (S. marcescens 10100) was 0.1 µg/mL (≈ 0.277 µM) and the MIC (S. aureus FDA 209P) was 0.2 µg/mL (≈ 0.553 µM).

For COc1c(N2C[C@@H]3CCCN[C@@H]3C2)c(F)cc2c(=O)c(C(=O)O)cn(C3CC3)c12 [MFLX, reference compound], the MIC (E. faevcalis ATCC 19433) was 0.2 µg/mL (≈ 0.498 µM), the MIC (S. flexneri 2A 5503) was 0.012 µg/mL (≈ 0.0299 µM) and the MIC (E. coli NIHJ) was 0.006 µg/mL (≈ 0.0149 µM). For the same molecule, the MIC (S. maltophilia IID 1275) was 0.1 µg/mL (≈ 0.249 µM), the MIC (S. pneumoniae J24) was 0.025 µg/mL (≈ 0.0623 µM) and the MIC (S. pyogenes G-36) was 0.2 µg/mL (≈ 0.498 µM). It also gave an MIC (K. pneumoniae TYPE I) of 0.05 µg/mL (≈ 0.125 µM), an MIC (S. aureus 870307) of 0.78 µg/mL (≈ 1.94 µM) and an MIC (P. Vulgalis 08601) of 0.025 µg/mL (≈ 0.0623 µM). For the same molecule, the MIC (P. aeruginosa 32121) was 0.2 µg/mL (≈ 0.498 µM), the MIC (P. aeruginosa 32104) was 0.39 µg/mL (≈ 0.972 µM) and the MIC (S. epidermidis 56500) was 0.1 µg/mL (≈ 0.249 µM). It also gave an MIC (S. marcescens 10100) of 0.1 µg/mL (≈ 0.249 µM) and an MIC (S. aureus FDA 209P) of 0.025 µg/mL (≈ 0.0623 µM).
